Data on two compounds can be found in US20050137182A1, “Novel crystalline form of cefdinir” (priority 2003, published 2005).

Several values for one entry are separate records, joined by “and”; a condition that tells them apart may be missing. Equal entries are not always repeated. Entries after “also recorded” stand apart in the source; their conditions may differ.

Common to all, as to assay type: physicochemical
Series [1] is described as follows: Accelerated storage stability, 40° C. ± 2° C./75% RH ± 5% RH. The conditions noted are these: for Assay (% w/w, by HPLC OAB), % change / Total RS (% area normalization, by HPLC) / Assay (% w/w, by HPLC OAB): accelerated 40° C. ± 2° C./75% RH ± 5% RH.
Series [2] can be described thus: Real time storage stability, 25° C. ± 2° C./60% RH ± 5% RH. The conditions noted are these: for Assay (% w/w, by HPLC OAB), % change / Total RS (% area normalization, by HPLC) / Assay (% w/w, by HPLC OAB): real time 25° C. ± 2° C./60% RH ± 5% RH.
Series [3] in a line: Stress stability study, HPLC purity and assay before and after. To be noted: 60° C.±2° C. for 15 days. Here is the method:
Stress stability studies of cefdinir crystal B were performed by keeping samples of cefdinir crystal B under the conditions of 60° C.±2° C. for 15 days, and the purity and assay of the samples were determined before and after the stress test by high performance liquid chromatography. […] Table 3 summaries the results of the stress test studies.

Where [4] appears, read: 1 Month, listed as Crystal B Sample 1.
Where [5] appears, read: 2 Months, listed as Crystal B Sample 1.
Where [6] appears, read: 2 Months, listed as Crystal B Sample 2.
Setting [7] is: 3 Months, listed as Crystal B Sample 1.
Where [8] appears, read: 3 Months, listed as Crystal B Sample 2.
Where [9] appears, read: Initial, listed as Crystal B Sample 1.
The mark [10] stands for this setting: Initial, listed as Crystal B Sample 2.

Regarding `C=CC1=C(C(=O)O)N2C(=O)[C@@H](NC(=O)/C(=N\O)c3csc(N)n3)[C@H]2SC1` [Cefdinir Crystal B, 7β-[(Z)-2-(2-amino-4-thiazolyl)-2-hydroxyiminoacetamido]-3-vinyl-3-cephem-4-carboxylic acid], the “Assay (% w/w, by HPLC OAB), % change” value in series [1] (setting [4]) is on record as 0.0%; in series [1] (setting [5]), 0.0%; in series [1] (setting [6]), 0.0%; in series [1] (setting [7]), −0.1%; in series [1] (setting [8]) it was −0.2%; in series [2] (setting [7]) it was 0.0%. For the same compound, in series [2] (setting [8]), the “Assay (% w/w, by HPLC OAB), % change” value is reported as 0.0%. For the same compound, the “Total RS (% area normalization, by HPLC)” value in series [1] (setting [4]) worked out at 0.72 % area; in series [1] (1 Month, listed as Crystal B Sample 2), 0.70 % area; in series [1] (setting [5]) it was 1.10 % area; in series [1] (setting [6]), 0.92 % area; in series [1] (setting [7]) it was 0.90 % area; in series [1] (setting [8]) it was 1.08 % area. The “Total RS (% area normalization, by HPLC)” value is listed as 0.64 % area in series [1] (setting [9]); 0.59 % area in series [1] (setting [10]); 0.53 % area in series [2] (setting [7]); 0.61 % area in series [2] (setting [8]); 0.64 % area in series [2] (setting [9]); 0.59 % area in series [2] (setting [10]). Also, the “Assay (% w/w, by HPLC OAB)” value in series [1] (setting [9]) amounted to 99.9 % w/w; in series [1] (setting [10]), 99.4 % w/w; in series [2] (setting [9]), 99.9 % w/w; in series [2] (setting [10]), 99.4 % w/w. For the same compound, in series [1] (about 40° C., about 75% RH, up to 3 months), the “Stability under accelerated storage conditions compared with the other crystal form (in words)” value was “increased storage stability; also recorded: superior stability”. For the same compound, in series [1] (over a period of at least 3 months under accelerated storage conditions), the “Amount of compound that degrades” value is reported as not above 0.5%. Also, in series [3], the “Assay (by HPLC on anhydrous basis, % change)” value is 0%. The “Degradation in stress test (in words)” value in series [3] is on record as “did not degrade”. In series [3], the “Purity (by HPLC, % change)” value is −0.21% and −0.33%.

With `C=CC1=C(C(=O)O)N2C(=O)[C@@H](NC(=O)/C(=N\O)c3csc(N)n3)[C@H]2SC1` [Cefdinir Crystal A, 7β-[(Z)-2-(2-amino-4-thiazolyl)-2-hydroxyiminoacetamido]-3-vinyl-3-cephem-4-carboxylic acid, reference compound], the “Assay (% w/w, by HPLC OAB), % change” value in series [1] (1 Month) was −0.5%; in series [1] (2 Months), −1.6%; in series [1] (3 Months), −1.8%; in series [2] (3 Months), −0.2%. In addition, the “Total RS (% area normalization, by HPLC)” value in series [1] (1 Month) is listed as 1.98 % area; in series [1] (2 Months), 2.25 % area; in series [1] (3 Months) it was 2.06 % area; in series [1] (Initial) it was 0.82 % area; in series [2] (3 Months), 1.18 % area; in series [2] (Initial), 0.82 % area. Further, the “Assay (% w/w, by HPLC OAB)” value in series [1] (Initial) and in series [2] (Initial) was 96.3 % w/w in each case. Further, the “Change in the assay” value in series [1] (after 3 months under accelerated storage conditions) was “about 1.8%”. Besides, the “Stability under normal storage conditions compared with the other crystal form (in words)” value in series [2] (25° C.±2° C./60% RH±5% RH, 3 months) is “as stable as crystal B”.
